Read-outs that look alike come from different tables or passages of the source.
Experiments:
[1] = tested on: Susceptible Musca domestica; assay: Contact bioassay of emulsified concentrate formulations on filter paper discs; conditions: EC formulation on filter paper
Description: (§1) A commercially-available permethrin 57 g L^−1 EC (Ectiban EC 57; Universal Cooperatives, Minneapolis, Minn.) was included for comparison. Except rosalva, the 50% EC semiochemical formulations were generated by combining 500 mL AI, 430 mL canola oil (Publix, Lakeland, Fla.), 10 mL xylene, 50 mL Triton X-100 (Acros Organics Nev., Fair Lawn, N.J.) and 10 mL Agsolex-8 (International Specialty Products, Wayne, N.J.). The rosalva formulation contained all of the above-mentioned ingredients, with canola oil concentration reduced to 400 mL L^−1, Triton X-100 concentration increased to 75 mL L^−1, and 5 mL L^−1 Antifoam B silicone emulsion (Mallinckrodt Baker, Phillipsburg, N.Y.) included.
Briefly, Whatman No. 1 filter paper discs (63.58 cm^2) are impregnated with 1.5 ml serially diluted formulations in 20 emulsified concentrates and 50 emulsified concentrates, respectively, and subsequently dried for about an hour. Then, house flies are divided into seven sets: three sets as the experiment, three sets as the positive control, and one set as the negative control. Each set consists of twenty six-to-ten-day old adult flies. […] The positive control set is exposed to paper discs impregnated with geranyl acetone, rosalva or citronellol. The negative control set is exposed to paper discs impregnated with acetone solution. Throughout the exposure periods, each set is provided with 10% sucrose solution and sufficient air circulation. Ataxic flies are considered dead. The mortality rate and the LC values are determined using the same procedures as is illustrated in Example 2.

Aedes aegypti [2] = conditions: EC formulation on military fabric
Description: as §1
Briefly, a piece of 10×10 cm^2 fabric (TenCate Defender™) is impregnated with 2 ml of serially diluted 20-emulsifiable concentrate or 50-emulsifiable concentrate formulations, respectively, and subsequently dried for about an hour. Also, six-to-ten-day-old, never blood-fed, adult female Ae. aegypti mosquitoes are obtained. The mosquitoes are divided into seven sets: three sets as the experiment, three sets as the positive control, and one set as the negative control. Each set consists of 20 mosquitoes. […] The positive control set is exposed to fabric pieces treated with geranyl acetone, rosalva or citronellol. The negative control set is exposed to fabric pieces treated with acetone solution. Throughout the exposure periods, each set is provided with 10% sucrose solution and sufficient air circulation. Ataxic mosquitoes are considered dead. The mortality rate and the LC values are determined using the same procedures as are illustrated in Example 2.

Aedes aegypti [3] = conditions: formulation on military fabric at LC99-based concentration, 2 h exposure, mortality 24 h after initial exposure
Description: Briefly, after mosquitoes are exposed to formulations for 2 hours at a concentration of LC99, each set is transferred into a separate glass jar, and held for another 24 hours. The mortality rate is measured with new mosquitoes on post-treatment days 2, 3, 5, 8 and 14 (Day 1 starts at 24 hours after the transfer), and is determined using the same procedures as are illustrated in Example 2.
Concentrations were generated from technical-based LC99 values obtained from a 2 h exposure period on military fabric. Fabric was treated on day 0 and was held until exposure on post-treatment day. Mosquitoes were exposed for 2 h, and mortality rate was assessed 24 h after initial exposure. Control contained formulation ingredients without semiochemicals.

Aedes aegypti [4] = conditions: formulation on plywood panels at 1.67 mg cm^−2, 2 h exposure, mortality 24 h after initial exposure
Description: Briefly, after mosquitoes are assayed on unpainted plywood panel boards with formulation at a concentration of 1.67 mg cm^−2 for 2 hours, they are transferred into a separate glass jar, and held for another 24 hours. The mortality rate is measured daily for a continuous 4 days (Day 1 starts at 24 hours after the transfer), as is determined using the same procedures as are illustrated in Example 2.
Plywood panels (225 cm^2) were treated with chemicals at a rate of 1.67 mg cm^−2. Panels were treated on day 0 and was held until exposure on post-treatment day. Mosquitoes were exposed to chemicals for 2 h, and mortality rate was assessed 24 h after initial exposure. Control contained formulation ingredients without semiochemicals.

SMILES	LC90 ([1]; 24 h constant exposure) [μg cm^−2]	LC90 ([1]; 48 h constant exposure) [μg cm^−2]	LC90 (Aedes aegypti [2]; exposure period 2 hours) [μg cm^−2]	LC90 (Aedes aegypti [2]; exposure period 4 hours) [μg cm^−2]	LC90 (Aedes aegypti [2]; exposure period 24 hours) [μg cm^−2]	% mortality on various days following treatment (Aedes aegypti [3]; day 1) [a %]	% mortality on various days following treatment (Aedes aegypti [3]; day 2) [a %]	% mortality on various days following treatment (Aedes aegypti [3]; day 5) [b %]	% mortality on various days following treatment (Aedes aegypti [3]; day 14)	% mortality on various days following treatment (Aedes aegypti [4]; day 1)	% mortality on various days following treatment (Aedes aegypti [4]; day 2)	% mortality on various days following treatment (Aedes aegypti [4]; day 3)	% mortality on various days following treatment (Aedes aegypti [4]; day 4)	% mortality on various days following treatment (Aedes aegypti [3]; day 3)	% mortality on various days following treatment (Aedes aegypti [3]; day 8)
CC(C)=CCCC(C)CCO (stereo not shown) [Citronellol, citronellol]	580.00	886.04	1938.19	1434.18	700.43	95.00	77.50	35.00	2.50cd %	94.00a %	61.0b %	26.0b %	10.0b %		
C=CCCCCCCCCO [Rosalva, rosalva]	1054.32	1022.88	1276.16	1262.11	500.92	95.00	87.50	35.00	0.00d %	58.00b %	34.0c %	11.0%	3.25.c %	65.00b %	27.50a %
CC(=O)CC/C=C(\C)CCC=C(C)C [Geranyl acetone, geranyl acetone]	1227.00	716.72	934.62	742.61	338.61	91.25	83.00	32.50	5.00c %	84.00a %	25.0c %	8.0c %	5.0c %	30.00c %	17.50c %

— patent US8772348B2, “Materials and methods for pest control” (priority 2009, dated 2014)
